The text below walks through data of patent US9663510B2, “Substituted triazolopyridines and their use as TTK inhibitors” (Bayer Intellectual Property GmbH, priority 2011, dated 2017).

Like-named read-outs stand apart in the source and are kept apart here.

In one data set the target is human kinase Mps-1 (Homo sapiens (Human), UniProt P33981). The experiment in a line: Mps-1 kinase assay (TR-FRET). The format is biochemical.
The nature of data set [1]: Metabolic stability in vitro, rat liver microsomes (calculation of Fmax). Conditions: maximal oral bioavailability calculated from microsomal half-life, 1 μM. Format: in vitro ADME. As for the experimental part:
(§1) The metabolic stability of test compounds in vitro was determined by incubating them at 1 μM with a suspension liver microsomes in 100 mM phosphate buffer, pH7.4 (NaH2PO4×H2O+Na2HPO4×2H2O) at a protein concentration of 0.5 mg/mL and at 37° C. The reaction was activated by adding a co-factor mix containing 1.2 mg NADP, 3 IU glucose-6-phosphate dehydrogenase, 14.6 mg glucose-6-phosphate and 4.9 mg MgCl2 in phosphate buffer, pH 7.4. Organic solvent in the incubations was limited to <0.2% dimethylsulfoxide (DMSO) and <1% methanol. During incubation, the microsomal suspensions were continuously shaken and aliquots were taken at 2, 8, 16, 30, 45 and 60 min, to which equal volumes of cold methanol were immediately added. Samples were frozen at −20° C. over night, subsequently centrifuged for 15 minutes at 3000 rpm and the supernatant was analyzed with an Agilent 1200 HPLC-system with LCMS/MS detection.
(§2) The half-life of a test compound was determined from the concentration-time plot. From the half-life the intrinsic clearances were calculated. Together with the additional parameters liver blood flow, specific liver weight and microsomal protein content the hepatic in vivo blood clearance (CL) and the maximal oral bioavailability (Fmax) were calculated for the different species. The following parameter values were used: Liver blood flow—1.3 L/h/kg (human), 2.1 L/h/kg (dog), 4.2 L/h/kg (rat); specific liver weight—21 g/kg (human), 39 g/kg (dog), 32 g/kg (rat); microsomal protein content—40 mg/g.
(§3) With the described assay only phase-I metabolism of microsomes is reflected, e.g. typically oxidoreductive reactions by cytochrome P450 enzymes and flavin mono-oxygenases (FMO) and hydrolytic reactions by esterases (esters and amides).

A short description of data set [2]: Metabolic stability in vitro, human liver microsomes (calculation of Fmax). The settings on record: maximal oral bioavailability calculated from microsomal half-life, 1 μM. The format is in vitro ADME. As to the method:
as §1, §2, §3

A short description of data set [3]: Metabolic stability in vitro, dog liver microsomes (calculation of Fmax). Conditions: maximal oral bioavailability calculated from microsomal half-life, 1 μM. The format is in vitro ADME. As to the method:
as §1, §2, §3

Data set [4] concerns HeLa human cervical tumor cells. The experiment in a line: HeLa cell proliferation assay (crystal violet). Format: cell-based. The settings on record: 96 h, 4 days incubation, read-out: Inhibition of cell proliferation, cell Line: HeLa IC50.
[5] abbreviates: read-out: Mps-1 Inhibition, IC50 (Assay with 10 μM ATP), 10 μM ATP.

Sequence of human kinase Mps-1 (P33981 whole entry): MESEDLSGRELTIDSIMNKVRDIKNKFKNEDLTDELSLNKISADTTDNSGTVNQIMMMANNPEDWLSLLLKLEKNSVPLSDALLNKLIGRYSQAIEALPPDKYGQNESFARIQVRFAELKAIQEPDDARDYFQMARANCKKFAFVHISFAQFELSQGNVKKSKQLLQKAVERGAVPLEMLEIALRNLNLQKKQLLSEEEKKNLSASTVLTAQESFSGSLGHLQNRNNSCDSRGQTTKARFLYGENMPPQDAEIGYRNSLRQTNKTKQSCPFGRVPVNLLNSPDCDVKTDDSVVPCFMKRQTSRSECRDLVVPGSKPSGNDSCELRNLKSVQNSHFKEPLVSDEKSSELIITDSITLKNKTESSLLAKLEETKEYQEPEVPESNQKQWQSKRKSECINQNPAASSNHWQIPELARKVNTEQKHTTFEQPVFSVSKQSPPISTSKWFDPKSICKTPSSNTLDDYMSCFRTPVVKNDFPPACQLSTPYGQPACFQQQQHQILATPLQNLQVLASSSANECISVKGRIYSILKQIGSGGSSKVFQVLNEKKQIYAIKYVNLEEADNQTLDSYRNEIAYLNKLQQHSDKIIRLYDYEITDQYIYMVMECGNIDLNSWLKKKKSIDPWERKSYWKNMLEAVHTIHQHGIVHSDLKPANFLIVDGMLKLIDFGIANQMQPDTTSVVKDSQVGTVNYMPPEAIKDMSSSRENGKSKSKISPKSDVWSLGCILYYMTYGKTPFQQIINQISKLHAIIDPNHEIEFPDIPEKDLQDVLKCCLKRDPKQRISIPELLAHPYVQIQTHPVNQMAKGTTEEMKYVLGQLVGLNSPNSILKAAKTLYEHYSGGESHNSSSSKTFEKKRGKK

Regarding `COc1cc(S(C)(=O)=O)ccc1Nc1nc2ccc(-c3ccc(NC(=O)[C@H](N)c4ccc(F)cc4)cc3)cn2n1` [Example01.11, (2R)-2-amino-2-(4-fluorophenyl)-N-[4-(2-{[2-methoxy-4-(methylsulfonyl)-phenyl]amino}[1,2,4]triazolo[1,5-a]pyridin-6-yl)phenyl]ethanamide], the IC50 against human kinase Mps-1 (2 mM ATP) is 9 nM; at human kinase Mps-1 (setting [5]), below 1 nM; in data set [4], below 600 nM. Also, in data set [1], the “Rat liver microsomes; Fmax [%]” value is listed as 92%. Besides, the “Human liver microsomes; Fmax [%]” value in data set [2] is on record as 76%. The “Dog liver microsomes; Fmax [%]” value in data set [3] was 75%.
`COc1cc(C(=O)NCC(F)(F)F)ccc1Nc1nc2ccc(-c3ccc(NC(=O)[C@H](C)c4ccc(F)cc4)cc3)cn2n1` [Example 01.04, 4-{[6-(4-{[(2R)-2-(4-fluorophenyl)propanoyl]amino}phenyl)[1,2,4]-triazolo[1,5-a]pyridin-2-yl]amino}-3-methoxy-N-(2,2,2-trifluoro-ethyl)benzamide]: the IC50 against human kinase Mps-1 (2 mM ATP) is 2 nM; on human kinase Mps-1 (setting [5]), below 1 nM; in data set [4], below 400 nM. The “Rat liver microsomes; Fmax [%]” value in data set [1] was 87%. In addition, the “Human liver microsomes; Fmax [%]” value in data set [2] is above 95%. Further, the “Dog liver microsomes; Fmax [%]” value in data set [3] is 94%.
